Measured values reported in ChEMBL document CHEMBL1201862, “PubChem BioAssay data set” (2004).
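Cultured in 96-well plates, cells were exposed to test compound for 48 hours across five concentrations. At the GI50, growth is halved.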 The source made the active and inactive calls. Cut-off read from the data, not from the text of the source: active = GI50 up to about 1.1 µM and inactive = higher.

What was measured:
Test in all cases: DTP human tumour cell line panel, 48 h
A549 = test system: A549
COLO 205 = test system: COLO 205
HOP-62 = test system: HOP-62
HOP-92 = test system: HOP-92
HT-29 = test system: HT-29
IGROV-1 = test system: IGROV-1
K562 = test system: K562
KM-20L2 = test system: KM-20L2
LOX IMVI = test system: LOX IMVI
MOLT-4 = test system: MOLT-4
NCI-H226 = test system: NCI-H226
OVCAR-4 = test system: OVCAR-4
OVCAR-5 = test system: OVCAR-5
SF-268 = test system: SF-268
SF-539 = test system: SF-539
SK-MEL-2 = test system: SK-MEL-2
SK-MEL-5 = test system: SK-MEL-5
SK-OV-3 = test system: SK-OV-3
SW-620 = test system: SW-620
UO-31 = test system: UO-31

| SMILES | GI50 (A549) | GI50 (COLO 205) | GI50 (HOP-62) | GI50 (HOP-92) | GI50 (HT-29) | GI50 (IGROV-1) | GI50 (K562) | GI50 (KM-20L2) | GI50 (LOX IMVI) | GI50 (MOLT-4) | GI50 (NCI-H226) | GI50 (OVCAR-4) | GI50 (OVCAR-5) | GI50 (SF-268) | GI50 (SF-539) | GI50 (SK-MEL-2) | GI50 (SK-MEL-5) | GI50 (SK-OV-3) | GI50 (SW-620) | GI50 (UO-31) |
| --- | --- | --- | --- | --- | --- | --- | --- | --- | --- | --- | --- | --- | --- | --- | --- | --- | --- | --- | --- | --- |
| COc1cc2c(ccc3c4cc(OC)c(OC)cc4c[n+](C)c23)cc1O [FAGARONINE] | 19.9 µM (inactive) | 15 µM (inactive) | 2.3 µM (inactive) | 23.6 µM (inactive) | > 73.3 µM (inactive) | 23.2 µM (inactive) | 4.26 µM (inactive) | > 75 µM (inactive) | > 33 µM (inactive) | 4.28 µM (inactive) | 1.47 µM (inactive) | 12.2 µM (inactive) | 24 µM (inactive) | 0.0588 µM (active) | 2.88 µM (inactive) | 41.4 µM (inactive) | 4.09 µM (inactive) | 21.6 µM (inactive) | 12.7 µM (inactive) | > 72.8 µM (inactive) |
| O=c1nc(NC(c2ccccc2)(c2ccccc2)c2ccccc2)ccn1CCCl | 30 µM (inactive) | 25.6 µM (inactive) | 21.5 µM (inactive) | 14.2 µM (inactive) | 17 µM (inactive) | 19.3 µM (inactive) | 21.8 µM (inactive) | 16.4 µM (inactive) | 17.1 µM (inactive) | 16.2 µM (inactive) | 21.2 µM (inactive) | 20.6 µM (inactive) | 27.5 µM (inactive) | 17.2 µM (inactive) | 17.8 µM (inactive) | 15.8 µM (inactive) |  |  | 24.1 µM (inactive) | 47.6 µM (inactive) |
| O=C1C=CC(=O)c2c(Cl)ccc(O)c21 | > 81.8 µM (inactive) | 13.1 µM (inactive) | > 100 µM (inactive) | 2.75 µM (inactive) | 21.6 µM (inactive) | 14.6 µM (inactive) | 3.48 µM (inactive) | 13.8 µM (inactive) | 18.2 µM (inactive) | 4.54 µM (inactive) | > 91.2 µM (inactive) | 18.5 µM (inactive) | > 54.1 µM (inactive) | 18.4 µM (inactive) | > 42.3 µM (inactive) | 37.8 µM (inactive) | 17.7 µM (inactive) | > 100 µM (inactive) | 11.6 µM (inactive) | > 100 µM (inactive) |
| CC1NC(=O)C(C)C(c2ccccc2)N(N=O)C1c1ccccc1 (stereo not drawn) | > 100 µM (inactive) | > 63.4 µM (inactive) | > 87.9 µM (inactive) | 39.7 µM (inactive) | 29.2 µM (inactive) | > 81.5 µM (inactive) | 33 µM (inactive) | > 100 µM (inactive) | > 69.5 µM (inactive) | 36.8 µM (inactive) | > 100 µM (inactive) | 31.3 µM (inactive) | > 100 µM (inactive) | > 100 µM (inactive) | > 100 µM (inactive) | > 100 µM (inactive) | > 71.3 µM (inactive) | 28.2 µM (inactive) | > 100 µM (inactive) | > 92.5 µM (inactive) |
| Cc1cc(C(=O)NCCN(C)C)c2nc3ccccc3cc2c1 | 0.867 µM (active) | 1.1 µM (active) | 1.68 µM (inactive) | 1.45 µM (inactive) | 1.13 µM (inactive) | 2.39 µM (inactive) | 2.44 µM (inactive) | 0.729 µM (active) | 1.27 µM (inactive) | 0.381 µM (active) | 1.17 µM (inactive) | 3.02 µM (inactive) | 1.98 µM (inactive) | 2.77 µM (inactive) | 3.76 µM (inactive) | 2.69 µM (inactive) | 1.64 µM (inactive) | 2.16 µM (inactive) | 0.889 µM (active) | 1.42 µM (inactive) |
